Laboratory results published in paper PMC6465675, “Design, Synthesis, Antiviral Evaluation, and SAR Studies of New 1-(Phenylsulfonyl)-1H-Pyrazol−4-yl-Methylaniline Derivatives” (Frontiers in Chemistry, 2019).

Columns and labels:
[1] = test system: DENV-2
[2] = in vitro; details: Mesocricetus auratus (hamster)
[3] = test system: DENV-2; experiment: microbe, parasite or virus in culture; details: Dengue virus, DENV2, BHK, read-out: DENV-2 EC50
[4] = test system: BVDV
[5] = test system: YFV
[6] = in vitro; details: Bos taurus (cattle)
[7] = in vitro; details: Cercopithecus aethiops (monkey), Vero76 CC50
[8] = in vitro; details: human
[9] = test system: BVDV; experiment: microbe, parasite or virus in culture; details: Bovine viral diarrhea virus isolates and strains, MDBK, read-out: BVDV EC50
[10] = test system: YFV; experiment: microbe, parasite or virus in culture; details: Yellow fever virus, BHK, read-out: YFV EC50
[11] = test system: CVB-5; experiment: microbe, parasite or virus in culture; type: cell-based, Coxsackievirus B5; details: Enterovirus B, Vero 76, read-out: CVB-5 EC50
[12] = test system: Sb-1; experiment: microbe, parasite or virus in culture; type: cell-based, Poliovirus type-1, Sabin strain; details: Enterovirus C, Vero 76, read-out: Sb-1 EC50
[13] = test system: VV; experiment: microbe, parasite or virus in culture; type: cell-based; details: Orthopoxvirus vaccinia, Vero 76, read-out: VV EC50
[14] = test system: HSV-1; experiment: microbe, parasite or virus in culture; type: cell-based, human herpesvirus 1; details: Human alphaherpesvirus 1, Vero 76, read-out: HSV-1 EC50
[15] = test system: VSV; experiment: microbe, parasite or virus in culture; type: cell-based; details: Vesicular stomatitis virus, Vero 76, read-out: VSV EC50
[16] = test system: RSV
[17] = test system: RSV; experiment: microbe, parasite or virus in culture; details: human respiratory syncytial virus, Vero 76, read-out: RSV EC50

SMILES	SI CC50/EC50 (DENV-2) [1]	CC50 [2] [µM]	EC50 [3] [µM]	melting point [°C]	SI CC50/EC50 (BVDV) [4]	SI CC50/EC50 (YFV) [5]	CC50 [6] [µM]	CC50 [7] [µM]	CC50 [8] [µM]	EC50 [9] [µM]	EC50 [10] [µM]	EC50 [11] [µM]	EC50 [12] [µM]	EC50 [13] [µM]	EC50 [14] [µM]	EC50 [15] [µM]	SI CC50/EC50 (RSV) [16]	EC50 [17] [µM]
Cc1ccc(-c2nn(-c3ccccc3)cc2CNc2ccc(Cl)cc2)cc1 [1k]	>8.3	> 100	12.1 ± 3	–	–	–	–	–	–	–	–	–	–	–	–	–	–	–
COc1ccc(S(=O)(=O)n2cc(CNc3ccc(Cl)cc3)c(-c3ccc(Br)cc3)n2)cc1 [8b, 4-Chloro-N-[(3-(4-bromophenyl)-1-((4-methoxphenyl)sulfonyl)-1H-pyrazol-4-yl)methyl]aniline]	–	> 100	–	153 to 154	>5.0	>4.6	> 100	> 100	> 100	20 ± 1.4	21.6 ± 0.8	–	–	–	–	–	–	–
Cc1ccc(NCc2cn(S(=O)(=O)c3ccccc3)nc2-c2ccc(Br)cc2)cc1 [7h, 4-Methyl-N-[(3-(4-bromophenyl)-1-(phenylsulfonyl)-1H-pyrazol-4-yl)methyl]aniline]	–	> 100	–	112	–	>20.4	> 100	93 ± 0.5	> 100	–	4.9 ± 0.9	> 93	> 93	> 93	> 93	> 93	7.4	12.5 ± 2.5
O=S(=O)(c1ccccc1)n1cc(CNc2ccc(Cl)cc2)c(-c2ccc(Br)cc2)n1 [7f, 4-Chloro-N-[(3-(4-bromophenyl)-1-(phenysulfonyl)-1H-pyrazol-4-yl)methyl]aniline]	–	> 100	–	137 to 138	–	>25.0	> 100	90 ± 2	> 100	–	4 ± 0.7	> 90	> 90	> 90	> 90	> 90	5.9	15.3 ± 2.5
Cc1ccc(-c2nn(-c3ccccc3)cc2CNc2ccccc2)cc1 [1a]	>3.3	> 100	30 ± 4	–	–	–	–	–	–	–	–	–	–	–	–	–	–	–
COc1ccc(S(=O)(=O)n2cc(CNc3ccc(Br)cc3)c(-c3ccc(C)cc3)n2)cc1 [8k]	–	> 100	–	151 to 153	>5.1	–	> 100	> 100	> 100	19.5 ± 1.4	–	–	–	–	–	–	–	–
Clc1ccc(NCc2cn(-c3ccccc3)nc2-c2ccc(Br)cc2)cc1 [1l]	>7.8	> 100	12.9 ± 2.3	–	–	–	–	–	–	–	–	–	–	–	–	–	–	–
O=S(=O)(c1ccccc1)n1cc(CNc2ccc(Cl)cc2)c(-c2ccccc2)n1 [7b, 4-Chloro-N-[(3-phenyl-1-(phenylsulphonyl)-1H-pyrazol-4-yl)methyl]aniline]	–	> 100	–	136 to 137	–	>12.3	> 100	–	> 100	–	8.1 ± 1.3	20 ± 5	> 80	> 80	> 80	> 80	–	–
NC(=O)c1ncn([C@@H]2O[C@H](CO)[C@@H](O)[C@H]2O)n1 [Ribavirin, reference compound]	–	–	–	–	3.4	–	55 ± 7	> 100	–	16 ± 2	–	–	–	–	–	–	>2.7	37.5 ± 2.5
Cc1cc(CCCOc2c(C)cc(-c3noc(C(F)(F)F)n3)cc2C)on1 [Pleconaril, reference compound]	–	–	–	–	–	–	–	70 ± 1	–	–	–	0.0025 ± 0.0005	2 ± 0.1	–	–	–	–	–
Cc1ccc(NCc2cn(-c3ccccc3)nc2-c2ccccc2)cc1 [1m]	>8.9	> 100	11.2 ± 3.6	–	–	–	–	–	–	–	–	–	–	–	–	–	–	–
COc1ccc(S(=O)(=O)n2cc(CNc3ccc(Cl)cc3)c(-c3ccc(Cl)cc3)n2)cc1 [8f, 4-Chloro-N-[(3-(4-chlorophenyl)-1-((4-methoxyphenyl)sulfonyl)-1H-pyrazol-4-yl)methyl]aniline]	–	> 100	–	158 to 159	>12.7	>6.25	> 100	> 100	> 100	7.9 ± 0.8	16 ± 0.7	–	–	–	–	–	–	–
Clc1ccc(NCc2cn(-c3ccccc3)nc2-c2ccccc2)cc1 [1h]	>7.7	> 100	13 ± 5	–	–	–	–	–	–	–	–	–	–	–	–	–	–	–
Nc1nc2c(ncn2COCCO)c(=O)[nH]1 [ACG, Acyclovir, reference compound]	–	–	–	–	–	–	–	> 100	–	–	–	–	–	–	2.9 ± 0.1	–	–	–
COc1c(C)c2c(c(O)c1C/C=C(\C)CCC(=O)O)C(=O)OC2 [M 5255, Mycophenolic acid, reference compound]	–	–	–	–	–	–	–	20 ± 0.3	–	–	–	–	–	2 ± 0.1	–	–	–	–
Brc1ccc(-c2nn(-c3ccccc3)cc2CNc2ccccc2)cc1 [1b]	>4.5	> 100	22 ± 6	–	–	–	–	–	–	–	–	–	–	–	–	–	–	–
Cc1ccc(-c2nn(S(=O)(=O)c3ccccc3)cc2CNc2ccccc2)cc1 [7m, N-[(1-(Phenylsulfonyl)-3-(p-tolyl)-1H-pyrazol-4-yl)methyl]aniline]	–	> 100	–	128 to 129	–	>8.7	> 100	> 100	> 100	–	11.5 ± 1	–	–	–	–	–	>8.0	12.5 ± 2.1
Clc1ccc(-c2nn(-c3ccccc3)cc2CNc2ccc(Br)cc2)cc1 [1d]	>9.1	> 100	11 ± 0.4	–	–	–	–	–	–	–	–	–	–	–	–	–	–	–
O=S(=O)(c1ccccc1)n1cc(CNc2ccccc2)c(-c2ccc(Cl)cc2)n1 [7i, N-[(3-(4-Chlorophenyl)-1-(phenylsulfonyl)-1H-pyrazol-4-yl)methyl]aniline]	–	> 100	–	117 to 118	–	>13.9	> 100	> 100	> 100	–	7.2 ± 0.9	–	–	–	–	–	>8.5	11.8 ± 2.5
O=S(=O)(c1ccccc1)n1cc(CNc2ccc(Cl)cc2)c(-c2ccc(Cl)cc2)n1 [7j, 4-Cloro-N-[(3-(4-chlorophenyl)-1-(phenylsulfonyl)-1H-pyrazol-4-yl)methyl]aniline]	–	> 100	–	142 to 143	>2.3	>22.7	> 100	> 100	> 100	43.3 ± 1.1	4.4 ± 0.4	–	–	–	–	–	>11.8	8.5 ± 0.5
Cc1ccc(NCc2cn(S(=O)(=O)c3ccccc3)nc2-c2ccc(Cl)cc2)cc1 [7l, 4-Methyl-N-[(3-(4-chlorophenyl)-1-(phenylsulfonyl)-1H-pyrazol-4-yl)methyl]anyline]	–	> 100	–	100 to 101	–	>15.2	> 100	> 100	> 100	–	6.6 ± 0.6	–	–	–	–	–	>4.2	24 ± 1
COc1ccc(S(=O)(=O)n2cc(CNc3ccccc3)c(-c3ccc(Br)cc3)n2)cc1 [8a]	–	> 100	–	131 to 134	–	–	> 100	> 100	> 100	5.6 ± 0.8	–	–	–	–	–	–	–	–
Cc1ccc(NCc2cn(S(=O)(=O)c3ccccc3)nc2-c2ccc(C)cc2)cc1 [7p, 4-Methyl-N-[(1-(phenysulfonyl)-3-(p-tolyl)-1H-pyrazol-4-yl)methyl]aniline]	–	> 100	–	123 to 124	–	>27.8	> 100	> 100	> 100	–	3.6 ± 0.5	–	–	–	–	–	>8.3	12 ± 2
Cc1ccc(-c2nn(S(=O)(=O)c3ccccc3)cc2CNc2ccc(Cl)cc2)cc1 [7n, 4-Chloro-N-[(1-(phenylsulfonyl)-3-(p-tolyl)-1H-pyrazol-4-yl)methyl]aniline]	–	> 100	–	115	–	>19.6	> 100	> 100	> 100	–	5.1 ± 0.6	–	–	–	–	–	>7.7	13 ± 2.8
COc1ccc(S(=O)(=O)n2cc(CNc3ccc(Br)cc3)c(-c3ccc(Cl)cc3)n2)cc1 [8g, 4-Bromo-N-[(3-(4-chlorophenyl)-1-((4-methoxyphenyl)sulfonyl)-1H-pyrazol-4-yl)methyl]aniline]	–	> 100	–	169 to 171	>8.1	>5.4	> 100	> 100	> 100	12.4 ± 0.8	18.6 ± 0.8	–	–	–	–	–	–	–
COc1ccc(S(=O)(=O)n2cc(CNc3ccc(Br)cc3)c(-c3ccc(Br)cc3)n2)cc1 [8c, 4-Bromo-N-[(3-(4-bromophenyl)-1-((4-methoxphenyl)sulfonyl)-1H-pyrazol-4-yl)methyl]aniline]	–	> 100	–	162 to 164	>4.4	–	> 100	> 100	> 100	23 ± 3.5	> 100	–	–	–	–	–	–	–
